Measured values from US10919896B2, “Preparation and uses of pyrimidinone derivatives” (Cancer Research Technology Limited, priority 2016, dated 2021).

Legend:
Cdc7/ASK = Cdc7/ASK (Homo sapiens, UniProt O00311); test: Cdc7 Biochemical Assay Method 1: 384 well ELISA, whole protein substrate MCM2, antibody against Phospho MCM2 (S53); set-up: purchased; settings: 2 μM ATP, read-out: Biochemical Method 1 (pIC50) (converted)
How it was run: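 MCM2 protein substrate was coated on nickel-chelate plates, then Cdc7/ASK was added with 2 μM ATP in 50 mM Tris-HCl pH 8.5, 10 mM MgCl2, 1 mM DTT, 4% DMSO, 90 min at room temperature. Phospho-MCM2 (S53) was detected by ELISA with an AP secondary and PNPP absorbance. IC50 was derived from % inhibition versus no-compound and no-enzyme controls.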

Cdc7/Dbf4 = Cdc7/Dbf4 (Homo sapiens, UniProt O00311); test: Cdc7 Biochemical Assay Method 3: Cdc7/Dbf4 Enzyme TR-FRET Assay measuring pS40MCM2; settings: 1 μM ATP, read-out: Biochemical Method 3 (pIC50) (converted)
Method: This protocol describes a method for assaying a compounds' ability to inhibit Cdc7 activity by measuring pS40MCM2 levels in a Cdc7/Dbf4 Enzyme TR-FRET Assay.
2.5 nM Cdc7/Dbf4 was incubated with 100 nM of biotin-labelled peptide 35-TDALTS(pS)PGRDLP in the presence of 1 μM ATP at 25° C. for 120 minutes. The phosphorylation of the peptide was detected using TR-FRET. Anti-Mcm2 (pS40) antibody, Terbium anti-rabbit secondary antibody and Streptavidin-Alexa Fluor488 form the detection system.

[1] = tested on: Cdc7 (pS53MCM2 levels in HCT116 cells); test: Cdc7 Cell Pharmacodynamics Assay Method 1: pS53MCM2 levels in HCT116 cells, 6 hours; format: cell-based; settings: for EC50: Homo sapiens, HCT-116, 6 h, read-out: Biomarker Method 1 (pEC50) (converted)
Description: This protocol describes a method to investigate the inhibition of Cdc7 activity of compounds by measuring pS53MCM2 levels in cells after treatment.
• HCT116 cells (wild type P53 positive) • McCoys 5A media (PAA Laboratories Ltd, E15-022) • 10% FCS (Sera Laboratories International Ltd, EU000F Batch:108005) • 100× L-Glutamine (Invitrogen, 25030-024) • D-PBS without CaCl2 and MgCl2 (Invitrogen, ref 14190-094) • Trypsin/EDTA (Invitrogen 25300-054) • 2% BSA in PBS • Cell Extraction Buffer (Invitrogen FNN0011) • Protease inhibitor cocktail (Sigma P-2714) • PMSF 0.3M stock in DMSO (Sigma P7626) • Antibody-rabbit pMCM2 Ser53 (Bethyl #A300-756A) • Antibody-goat MCM2 (Bethyl #A300-122A) • Antibody-goat Anti Rabbit IgG HRP (Perbio Science UK Ltd 31462) • 1×PBS • FACE Wash buffer (0.02% Triton X100 in 1×PBS) • SuperSignal ELISA Pico Chemiluminescent Substrate (Perbio Science UK Ltd 37070) Method • 72 hours prior to the start of the experiment plate 1×10^6 HCT 116 cells in a 150 cm^2 flask in complete McCoys 5A media (+10% FCS+1× L-glutamine). • Plate 20,000 HCT116 cells per well in standard TC treated 96 well plate in 100 μL complete McCoys 5A media. • Allow cells to settle overnight in incubator set at 37° C. and 5% CO2. • Remove intermediate plate from fridge and place at 37° C. overnight to allow to equilibrate. • Cell treatment: cell assay plate 100 μL; daughter to cell transfer volume 3.33 μL; daughter volume 45 μL; mother plate to daughter volume 5 μL. • Once all cells are treated remove the cells to the incubator and incubate for 6 hours. • Dilute the capture antibody (total MCM2#A300-122A) 1 in 250 in the required volume of PBS (5 mL per assay plate) and add 50 μL to each well of a Hybond plate excluding wells 12E to 12H. In these wells add 50 μL PBS. Seal the plate and incubate at room temperature for a minimum of 2 hours. • Defrost aliquot of Invitrogen Cell Extraction Buffer (FNN0011) on ice and supplement with appropriate volume of both Sigma protease inhibitor cocktail (P-2714) and PMSF (final conc 1 mM from a 1 M stock in DMSO). • After the 6 hour cell treatment time tap out the media from the assay plates and place them in the −70° C. freezer for at least 5 minutes. • Remove plates from freezer and add 20 μL of ice cold complete lysis buffer on ice. Incubate cells for 30 minutes at 4° C. • Add 80 μL per well 2% BSA. • Transfer 80 μL from the lysis plate to the same wells in the capture/ELISA plate. Cover with plate seal and incubate plates overnight at 4° C. • Wash plates with PBS, remove any residual remaining liquid and add 50 μL per well of pMCM2 Ser53 antibody (#A300-756A) diluted 1 in 100 in 2% BSA. Cover plate and incubate at room temperature for 2 hours with gentle shaking. • Wash plates with PBS, remove any residual remaining liquid and Incubate with 50 μL goat anti rabbit antibody (1 in 800 dilution in 2% BSA) for 1 hour at room temperature. • Wash plates with PBS, remove any residual remaining liquid and add 50 μL mixed SuperSignal Pico substrate. • Incubate each plate for 5 minutes at room temperature shielding the plates from direct light (with a cover plate). Read plates with the luminescent detection. Method 2A and 2B

Sequence of Cdc7/Dbf4 (O00311 whole entry): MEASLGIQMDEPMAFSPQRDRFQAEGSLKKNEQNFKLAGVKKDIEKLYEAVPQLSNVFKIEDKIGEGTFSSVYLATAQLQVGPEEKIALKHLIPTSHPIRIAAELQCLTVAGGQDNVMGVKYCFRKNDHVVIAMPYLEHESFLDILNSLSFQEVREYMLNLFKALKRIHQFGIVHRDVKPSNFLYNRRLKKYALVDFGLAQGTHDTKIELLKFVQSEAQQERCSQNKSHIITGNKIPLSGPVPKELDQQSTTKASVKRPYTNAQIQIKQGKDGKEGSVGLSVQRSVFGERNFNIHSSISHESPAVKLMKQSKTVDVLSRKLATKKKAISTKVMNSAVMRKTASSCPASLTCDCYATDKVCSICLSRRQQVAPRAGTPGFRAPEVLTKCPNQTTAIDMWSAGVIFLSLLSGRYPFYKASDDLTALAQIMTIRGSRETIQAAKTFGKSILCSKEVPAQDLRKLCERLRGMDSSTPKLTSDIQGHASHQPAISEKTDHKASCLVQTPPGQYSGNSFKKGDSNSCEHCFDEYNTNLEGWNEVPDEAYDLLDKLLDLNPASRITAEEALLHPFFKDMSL
Sequence of Cdc7/Dbf4 (Q9UBU7 whole entry partner): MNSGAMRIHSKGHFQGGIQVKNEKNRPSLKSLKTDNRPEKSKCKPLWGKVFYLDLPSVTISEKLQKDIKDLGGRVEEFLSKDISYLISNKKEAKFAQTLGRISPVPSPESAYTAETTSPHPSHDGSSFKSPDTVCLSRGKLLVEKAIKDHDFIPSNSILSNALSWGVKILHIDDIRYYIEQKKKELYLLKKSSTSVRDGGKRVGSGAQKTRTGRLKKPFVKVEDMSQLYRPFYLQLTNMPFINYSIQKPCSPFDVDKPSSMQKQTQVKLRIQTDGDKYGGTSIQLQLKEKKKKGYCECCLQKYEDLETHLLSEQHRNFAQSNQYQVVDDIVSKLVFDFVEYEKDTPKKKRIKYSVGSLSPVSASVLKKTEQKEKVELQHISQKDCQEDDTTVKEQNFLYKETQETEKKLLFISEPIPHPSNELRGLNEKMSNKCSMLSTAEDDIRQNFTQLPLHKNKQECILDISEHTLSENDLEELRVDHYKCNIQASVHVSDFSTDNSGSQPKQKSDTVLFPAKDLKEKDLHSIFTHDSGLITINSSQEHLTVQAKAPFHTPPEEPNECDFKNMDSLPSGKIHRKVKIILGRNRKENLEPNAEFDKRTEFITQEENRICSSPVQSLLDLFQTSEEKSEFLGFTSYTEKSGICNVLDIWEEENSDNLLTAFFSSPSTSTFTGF
Sequence of Cdc7/ASK (O00311 whole entry): as the sequence (O00311 whole entry) above
Sequence of Cdc7/ASK (Q9UBU7 whole entry partner): as the sequence (Q9UBU7 whole entry partner) above

Structure (SMILES) | IC50 (Cdc7/ASK) | IC50 (Cdc7/Dbf4) | EC50 [1] | Biomarker Method 1 (pEC50) [1]
CC(C)CN1CCC(c2nc(-c3ccncc3)[nH]c(=O)c2Cl)CC1 [Compound 39, 5-chloro-4-(1-isobutyl-4-piperidyl)-2-(4-pyridyl)-1H-pyrimidin-6-one] | 8.32 nM | 5.75 nM |  | 
O=C(N1CCN(c2nc(-c3ccncc3)[nH]c(=O)c2Cl)CC1)C(F)(F)F [Compound 76] | 3.47 nM |  | 182 nM | 
CC(=O)N1CCN(c2nc(-c3ccncc3)[nH]c(=O)c2Cl)C[C@@H]1C [Compound 78] | 2.29 nM |  | 468 nM | 
CC(C)CN1CCN(c2nc(-c3ccncc3)[nH]c(=O)c2Cl)CC1 [Compound 82] | 31.6 nM |  | 977 nM | 
O=c1[nH]c(-c2ccncc2)nc(N2CCN(CC3CCCC3)CC2)c1Cl [Compound 84] | 23.4 nM |  | 589 nM | 
O=c1[nH]c(-c2ccncc2)nc(N2CCN(CC3CCCCC3)CC2)c1Cl [Compound 85] | 47.9 nM |  | 891 nM | 
O=c1[nH]c(-c2ccncc2)nc(N2CCOCC2)c1Cl [Compound 89, 5-chloro-4-morpholino-2-(4-pyridyl)-1H-pyrimidin-6-one] | 2.29 nM |  | 74.1 nM | 
O=c1[nH]c(-c2ccncc2)nc(N2CCNC(C(F)(F)F)C2)c1Cl (centres unmarked) [Compound 101] | 4.37 nM |  | 44.7 nM | 
CC1CC(C)CN(c2nc(-c3ccncc3)[nH]c(=O)c2Cl)C1 (centres unmarked) [Compound 103] | 29.5 nM |  | 1150 nM | 
O=c1[nH]c(-c2ccncc2)nc(N2CCC(O)CC2)c1Cl [Compound 104] | 3.8 nM |  | 155 nM | 
CC1CCCN(c2nc(-c3ccncc3)[nH]c(=O)c2Cl)C1 (centres unmarked) [Compound 105] | 14.1 nM |  | 427 nM | 
O=c1[nH]c(-c2ccncc2)nc(N2CCC(F)CC2)c1Cl [Compound 106] | 7.59 nM |  | 70.8 nM | 
O=c1[nH]c(-c2ccncc2)nc(N2CCC(CO)CC2)c1Cl [Compound 109] | 3.63 nM |  | 151 nM | 
O=c1[nH]c(-c2ccncc2)nc(N2CCN(c3cccc(F)c3)CC2)c1Cl [Compound 111] | 16.2 nM |  | 759 nM | 
O=C(OCc1ccccc1)N1CCN(c2nc(-c3ccncc3)[nH]c(=O)c2Cl)CC1 [Compound 112] | 6.17 nM |  | 759 nM | 
O=c1[nH]c(-c2ccncc2)nc(N2CCCCCC2)c1Cl [Compound 114] | 19.1 nM |  | 1550 nM | 
O=c1[nH]c(-c2ccncc2)nc(N2C[C@H]3C[C@@H]2CN3)c1Cl [Compound 161] | 31.6 nM | 1.74 nM |  | 
O=c1[nH]c(-c2ccncc2)nc(N2CCNC(c3ccc(Cl)cc3)C2)c1Cl (centres unmarked) [Compound 168] | 9.33 nM | 1.91 nM |  | 
CC[C@H]1COCCN1c1nc(-c2ccnc(F)c2)[nH]c(=O)c1Cl [Compound 336] |  | 1.82 nM |  | 
C[C@@H]1COC[C@@H](C)N1c1nc(-c2ccnc(F)c2)[nH]c(=O)c1Cl [Compound 341] |  | 6.61 nM |  | 
C[C@H]1COC[C@H](C)N1c1nc(-c2ccnc(F)c2)[nH]c(=O)c1Cl [Compound 342] |  | 129 nM |  | 
C[C@@H]1COC[C@H](C)N1c1nc(-c2ccnc(F)c2)[nH]c(=O)c1Cl [Compound 343] |  | 6.76 nM |  | 
O=c1[nH]c(-c2ccnc(F)c2)nc(N2CCn3cncc3C2)c1Cl [Compound 346] |  | 1.05 nM |  | 
CC(C)C[C@H]1CN2CCC[C@H]2CN1c1nc(-c2ccnc(F)c2)[nH]c(=O)c1Cl [Compound 349] |  | 83.2 nM |  | 
O=c1[nH]c(-c2ccnc(F)c2)nc(N2CCn3ccnc3C2)c1Cl [Compound 353] |  | 1.62 nM |  | 
O=c1[nH]c(-c2ccnc(F)c2)nc(N2CCc3nncn3CC2)c1Cl [Compound 354] |  | 2 nM |  | 
CC1c2nnc(C(F)(F)F)n2C(C)CN1c1nc(-c2ccnc(F)c2)[nH]c(=O)c1Cl (centres unmarked) [Compound 356] |  | 10 nM |  | 
O=c1[nH]c(-c2ccnc(F)c2)nc(CN2CCOCC2)c1Cl [Compound 397, 5-chloro-2-(2-fluoro-4-pyridyl)-4-(morpholinomethyl)-1H-pyrimidin-6-one] |  | 219 nM |  | 
O=c1[nH]c(-c2ccnc(F)c2)nc(CN2CCNCC2)c1Cl [Compound 398] |  | 295 nM |  | 

Next, values leading:

IC50 (Cdc7/ASK) | IC50 (Cdc7/Dbf4) | EC50 [1] | Biomarker Method 1 (pEC50) [1] | Structure (SMILES)
1.23 nM | 0.759 nM |  |  | O=c1[nH]c(-c2ccnc(F)c2)nc(C2CCOCC2)c1Cl [Compound 13, 5-chloro-2-(2-fluoro-pyridin-4-yl)-6-(tetrahydro-pyran-4-yl)-3H-pyrimidin-4-one]
11.2 nM |  | 191 nM |  | CC1CN(c2nc(-c3ccncc3)[nH]c(=O)c2Cl)CCN1C (centres unmarked) [Compound 28]
39.8 nM |  | 398 nM |  | CCN1CCN(c2nc(-c3ccncc3)[nH]c(=O)c2Cl)CC1 [Compound 31]
2.95 nM |  | 93.3 nM |  | C[C@H]1CN(c2nc(-c3ccncc3)[nH]c(=O)c2Cl)CCN1C(=O)C(F)(F)F [Compound 77, 5-chloro-4-[(3S)-3-methyl-4-(2,2,2-trifluoroacetyl)piperazin-1-yl]-2-(4-pyridyl)-1H-pyrimidin-6-one]
9.33 nM |  | 195 nM |  | CN1CCN(c2nc(-c3ccncc3)[nH]c(=O)c2Cl)CC1 [Compound 81]
3.02 nM |  | 148 nM |  | CC(C)CN1CCC(c2nc(-c3ccnc(F)c3)[nH]c(=O)c2Cl)CC1 [Compound 87]
14.1 nM |  | 107 nM |  | C[C@H]1CN(c2nc(-c3ccncc3)[nH]c(=O)c2Cl)CCN1C [Compound 88]
66.1 nM |  | 3160 nM |  | O=c1[nH]c(-c2ccncc2)nc(N2CCOC(c3ccccc3)C2)c1Cl (centres unmarked) [Compound 91]
6.92 nM |  | 759 nM |  | O=c1[nH]c(-c2ccncc2)nc(N2CCOC(CCO)C2)c1Cl (centres unmarked) [Compound 94]
7.08 nM |  |  | 6.44 | O=c1[nH]c(-c2ccncc2)nc(N2CCCC(C(F)(F)F)C2)c1Cl (centres unmarked) [Compound 107]
12.6 nM |  | 603 nM |  | O=c1[nH]c(-c2ccncc2)nc(N2CCN(c3cccnc3)CC2)c1Cl [Compound 116]
5.62 nM |  | 117 nM |  | CC1(C)CN(c2nc(-c3ccncc3)[nH]c(=O)c2Cl)CCO1 [Compound 121]
6.61 nM |  | 417 nM |  | CC1CCN(c2nc(-c3ccncc3)[nH]c(=O)c2Cl)CC1 [Compound 122]
 | 9.55 nM |  |  | O=c1[nH]c(-c2ccnc(F)c2)nc(O[C@H]2CCCNC2)c1Cl [Compound 331]
 | 6.31 nM |  |  | O=c1[nH]c(-c2ccnc(F)c2)nc(N2CCO[C@H]3CCCC[C@@H]32)c1Cl [Compound 332]
 | 2.75 nM |  |  | N#C[C@H]1CNCCN1c1nc(-c2ccnc(F)c2)[nH]c(=O)c1Cl [Compound 344]
 | 0.891 nM |  |  | NC(=O)CN1CCN(c2nc(-c3ccnc(F)c3)[nH]c(=O)c2Cl)CC(F)(F)C1 [Compound 414, 2-[4-[5-chloro-2-(2-fluoro-4-pyridyl)-6-oxo-1H-pyrimidin-4-yl]-6,6-difluoro-1,4-diazepan-1-yl]acetamide]
